Reference: US20250177566A1, “USE OF CHEMICAL EPIGENETIC MODIFIERS TO MODULATE GENE EXPRESSION” (The University of North Carolina at Chapel Hill, priority 2022, published 2025)

What was measured:
TRE3G-GFP reporter gene = TRE3G-GFP reporter gene activation in HCT116, dCas9 + MS2-FKBP*x2 (F36V) system, flow cytometry; type: cell-based, human; set-up: fold change, GFP: reference not given here; settings: for fold change, GFP (TRE3G gRNA vs NT gRNA): FIG. 1C, 48 hours; for fold change, GFP (TRE3G gRNA vs NT gRNA) / fold change, GFP: 10 nM; for % repress, GFP (no AP1867 vs AP1867 added): FIG. 1D; for fold change, GFP: FIG. 5A
CXCR4 = CXCR4 mRNA activation in HCT116 stably expressing dCas9 and MS2-FKBP*x2, qRT-PCR; type: cell-based, human; settings: FIG. 2C; 5 nM; 48 hrs
Protocol: To further explore the activation potential of the SLF*-CEMa, their ability to target endogenous genes was evaluated (FIGS. 2A and 2B). Lentivirus was used to establish a stable HCT116 cell line expressing dCas9 and MS2-FKBP*x2 constructs, selecting for cells with antibiotic resistance. […] All CEMs were screened for their ability to activate the CXCR4 gene at 5 nM (FIG. 2C). RNA extraction and quantitative RT-PCR (qRT-PCR) were performed after 48 hours of CEM treatment.
To determine the optimal treatment concentration of the SLF*-CEMa molecules in this context, HCT116 cells were treated with 1 nM, 5 nM, 25 nM, and 50 nM of CEM203, CEM207, or CEM87. […] After 48 hours, RNA extraction followed by qRT-PCR was performed to evaluate the change in mRNA expression of CXCR4 (FIG. 2D). […] To directly compare this induced activation to other CRISPR-Cas9-based epigenetic activators, dCas9-VPR and dCas9-p300 constructs were virally infected into HCT116 cells and CXCR4 activation assessed in a similar fashion (FIGS. 2A and 2B).
To determine the time at which SLF*-CEMa most effectively induces gene activation, CXCR4 gene expression changes over time were investigated in dCas9 and MS2-FKBP*x2 stably infected HCT116 cells. Cells were treated with either vehicle, […] (FIG. 3A). RNA extraction and qRT-PCR were performed at 12, 24, 48, 72, and 96 hrs time points (FIG. 3B).
To investigate if endogenous gene activation triggered by the SLF*-CEMa compounds is also reversible, HCT116 cells were treated with CEM203 (50 nM) or CEM207 (25 nM) for 24 hours after transfecting CXCR4 gRNA, and then the CEMs were removed by media exchange at various time points. […] Likewise, it was investigated whether treatment with excess AP1867 could further reverse gene activation, potentially in a more robust fashion than with washout alone if there is any remaining intracellular SLF*-CEMa. To test this, after 24 hours of SLF*-CEMa treatment, a media exchange containing 20 μM AP1867 was performed (FIGS. 3C and 3D).
RNA extraction and qRT-PCR. All RNA extraction experiments were conducted in 12-well plate format. Culturing medium was removed, and cells were washed with 1×PBS, following with 0.05% trypsin to disassociate. After being quenched by medium and centrifuged, cells were washed with 1×PBS, and the RNA extraction was performed by using RNeasy Plus Mini kit (Qiagen, 74134). RT-qPCR was conducted by using RNA-to CT 1-step kit (Thermo Fisher Scientific, 4389986). The primer sets used in quantifying each gene can be found in Table 4.

Row | SMILES | fold change, GFP (TRE3G gRNA vs NT gRNA) (TRE3G-GFP reporter gene) [fold] | % repress, GFP (no AP1867 vs AP1867 added) (TRE3G-GFP reporter gene; TRE3G gRNA, CEM207 5 nM + AP1867 5 μM) [%] | % repress, GFP (no AP1867 vs AP1867 added) (TRE3G-GFP reporter gene; TRE3G gRNA, CEM207 5 nM + AP1867 10 μM) [%] | % repress, GFP (no AP1867 vs AP1867 added) (TRE3G-GFP reporter gene; TRE3G gRNA, CEM207 5 nM + AP1867 20 μM) [%] | fold change, GFP (no AP1867 vs AP1867 added) (TRE3G-GFP reporter gene; FIG. 5B, TRE3G gRNA, CEM207 5 nM + AP1867 500 nM, 48 hrs) | fold change, GFP (TRE3G-GFP reporter gene; NT gRNA, 48 hrs) [fold] | fold change, GFP (TRE3G-GFP reporter gene; TRE3G gRNA, 48 hrs) [fold] | fold change, CXCR4 mRNA (Treated vs Non-Treated) (CXCR4) [fold]
1 | CC[C@H](C(=O)N1CCCC[C@H]1C(=O)O[C@H](CCc1ccc(OC)c(OC)c1)c1cccc(OCC(=O)O)c1)c1cc(OC)c(OC)c(OC)c1 [AP1867, reference compound] | 1.4 | 45 | 84 | 91 | No change in GFP expression |  |  | 
2 | CC[C@H](C(=O)N1CCCC[C@H]1C(=O)O[C@H](CCc1ccc(OC)c(OC)c1)c1cccc(OCC(=O)NCCOCCOCCOCCOCCOCCNC(=O)C[C@@H]2N=C(c3ccc(Cl)cc3)c3cc(OC)ccc3-n3c(C)nnc32)c1)c1cc(OC)c(OC)c(OC)c1 [CEM204, (1R)-1-(3-((23-((4S)-6-(4-Chlorophenyl)-8-methoxy-1-methyl-4H-benzo[f][1,2,4]triazolo[4,3-a][1,4]diazepin-4-yl)-2,22-dioxo-6,9,12,15,18-pentaoxa-3,21-diazatricosyl)oxy)phenyl)-3-(3,4-dimethoxyphenyl) propyl (2S)-1-((S)-2-(3,4,5-trimethoxyphenyl)butanoyl) piperidine-2-carboxylate] |  |  |  |  |  | 0.3 | 5.7 | 7.2
3 | CC[C@H](C(=O)N1CCCC[C@H]1C(=O)O[C@H](CCc1ccc(OC)c(OC)c1)c1cccc(OCC(=O)NCCOCCOCCOCCOCCOCCOCCOCCNC(=O)C[C@@H]2N=C(c3ccc(Cl)cc3)c3c(sc(C)c3C)-n3c(C)nnc32)c1)c1cc(OC)c(OC)c(OC)c1 [CEM212, (R)-1-(3-((29-((S)-4-(4-Chlorophenyl)-2,3,9-trimethyl-6H-thieno[3,2-f][1,2,4]triazolo[4,3-a][1,4]diazepin-6-yl)-2,28-dioxo-6,9,12,15,18,21,24-heptaoxa-3,27-diazanonacosyl)oxy)phenyl)-3-(3,4-dimethoxyphenyl) propyl(S)-1-((S)-2-(3,4,5-trimethoxyphenyl)butanoyl) piperidine-2-carboxylate] |  |  |  |  |  | 0.4 | 6.1 | 12.6
4 | CC[C@H](C(=O)N1CCCC[C@H]1C(=O)O[C@H](CCc1ccc(OC)c(OC)c1)c1cccc(OCC(=O)NCCOCCOCCOCCOCCOCCOCCNC(=O)C[C@@H]2N=C(c3ccc(Cl)cc3)c3cc(OC)ccc3-n3c(C)nnc32)c1)c1cc(OC)c(OC)c(OC)c1 [CEM205, (1R)-1-(3-((26-((4S)-6-(4-Chlorophenyl)-8-methoxy-1-methyl-4H-benzo[f][1,2,4]triazolo[4,3-a][1,4]diazepin-4-yl)-2,25-dioxo-6,9,12,15,18,21-hexaoxa-3,24-diazahexacosyl)oxy)phenyl)-3-(3,4-dimethoxyphenyl) propyl (2S)-1-((S)-2-(3,4,5-trimethoxyphenyl)butanoyl) piperidine-2-carboxylate] |  |  |  |  |  | 0.4 | 6.9 | 8.8
5 | CC[C@H](C(=O)N1CCCC[C@H]1C(=O)O[C@H](CCc1ccc(OC)c(OC)c1)c1cccc(OCC(=O)NCCOCCOCCOCCOCCNC(=O)C[C@@H]2N=C(c3ccc(Cl)cc3)c3c(sc(C)c3C)-n3c(C)nnc32)c1)c1cc(OC)c(OC)c(OC)c1 [CEM209, (R)-1-(3-((20-((S)-4-(4-Chlorophenyl)-2,3,9-trimethyl-6H-thieno[3,2-f][1,2,4]triazolo[4,3-a][1,4]diazepin-6-yl)-2,19-dioxo-6,9,12,15-tetraoxa-3,18-diazaicosyl)oxy)phenyl)-3-(3,4-dimethoxyphenyl) propyl(S)-1-((S)-2-(3,4,5-trimethoxyphenyl)butanoyl) piperidine-2-carboxylate] |  |  |  |  |  | 0.5 | 4.3 | 11.1
6 | CC[C@H](C(=O)N1CCCC[C@H]1C(=O)O[C@H](CCc1ccc(OC)c(OC)c1)c1cccc(OCC(=O)NCCOCCOCCOCCNC(=O)C[C@@H]2N=C(c3ccc(Cl)cc3)c3c(sc(C)c3C)-n3c(C)nnc32)c1)c1cc(OC)c(OC)c(OC)c1 [CEM208, (R)-1-(3-((17-((S)-4-(4-Chlorophenyl)-2,3,9-trimethyl-6H-thieno[3,2-f][1,2,4]triazolo[4,3-a][1,4]diazepin-6-yl)-2,16-dioxo-6,9,12-trioxa-3,15-diazaheptadecyl)oxy)phenyl)-3-(3,4-dimethoxyphenyl) propyl(S)-1-((S)-2-(3,4,5-trimethoxyphenyl)butanoyl) piperidine-2-carboxylate] |  |  |  |  |  | 0.4 | 8.1 | 11.5
7 | CC[C@H](C(=O)N1CCCC[C@H]1C(=O)O[C@H](CCc1ccc(OC)c(OC)c1)c1cccc(OCC(=O)NCCOCCOCCNC(=O)C[C@@H]2N=C(c3ccc(Cl)cc3)c3cc(OC)ccc3-n3c(C)nnc32)c1)c1cc(OC)c(OC)c(OC)c1 [CEM201, (1R)-1-(3-((14-((4S)-6-(4-Chlorophenyl)-8-methoxy-1-methyl-4H-benzo[f][1,2,4]triazolo[4,3-a][1,4]diazepin-4-yl)-2,13-dioxo-6,9-dioxa-3,12-diazatetradecyl)oxy)phenyl)-3-(3,4-dimethoxyphenyl) propyl (2S)-1-((S)-2-(3,4,5-trimethoxyphenyl)butanoyl) piperidine-2-carboxylate] |  |  |  |  |  | 0.6 | 8.2 | 5.8
8 | CC[C@H](C(=O)N1CCCC[C@H]1C(=O)O[C@H](CCc1ccc(OC)c(OC)c1)c1cccc(OCC(=O)NCCOCCOCCOCCOCCOCCOCCOCCNC(=O)C[C@@H]2N=C(c3ccc(Cl)cc3)c3cc(OC)ccc3-n3c(C)nnc32)c1)c1cc(OC)c(OC)c(OC)c1 [CEM206, (1R)-1-(3-((29-((4S)-6-(4-Chlorophenyl)-8-methoxy-1-methyl-4H-benzo[f][1,2,4]triazolo[4,3-a][1,4]diazepin-4-yl)-2,28-dioxo-6,9,12,15,18,21,24-heptaoxa-3,27-diazanonacosyl)oxy)phenyl)-3-(3,4-dimethoxyphenyl) propyl (2S)-1-((S)-2-(3,4,5-trimethoxyphenyl)butanoyl) piperidine-2-carboxylate] |  |  |  |  |  | 0.3 | 8.5 | 13.9
9 | CC[C@H](C(=O)N1CCCC[C@H]1C(=O)O[C@H](CCc1ccc(OC)c(OC)c1)c1cccc(OCC(=O)NCCOCCOCCOCCOCCOCCOCCNC(=O)C[C@@H]2N=C(c3ccc(Cl)cc3)c3c(sc(C)c3C)-n3c(C)nnc32)c1)c1cc(OC)c(OC)c(OC)c1 [CEM211, (R)-1-(3-((26-((S)-4-(4-Chlorophenyl)-2,3,9-trimethyl-6H-thieno[3,2-f][1,2,4]triazolo[4,3-a][1,4]diazepin-6-yl)-2,25-dioxo-6,9,12,15,18,21-hexaoxa-3,24-diazahexacosyl)oxy)phenyl)-3-(3,4-dimethoxyphenyl) propyl(S)-1-((S)-2-(3,4,5-trimethoxyphenyl)butanoyl) piperidine-2-carboxylate] |  |  |  |  |  | 0.4 | 7.8 | 8.5
10 | CCNC(=O)C[C@@H]1N=C(c2ccc(Cl)cc2)c2cc(OC)ccc2-n2c(C)nnc21 [iBET762, reference compound] | 2.4 |  |  |  |  |  |  | 
